According to US20200024278A1, “COMPOSITION COMPRISING ANTIBIOTIC COMPOUND AND AN HETEROCYCLIC COMPOUND AND THEIR USE IN PREVENTING OR TREATING BACTERIAL INFECTIONS” (MUTABILIS, priority 2016, published 2020):
Like-named read-outs stand apart in the source and are kept apart here.

Tests used:
Assay in all cases: MIC, broth microdilution (CLSI), substance alone or ATB combined with compound at 4 or 8 μg/mL
[1] = test system: ECO 190317; type: cell-based, E. coli; settings: ECO 190317; for MIC: Escherichia coli
Method in brief: (§1)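 Growth inhibition endpoint, read visually after 16-20 h at 35° C in ambient air. Cation-adjusted Mueller-Hinton broth, inoculum 5·10^5 CFU/mL, CLSI M7-A7 protocol.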

[2] = test system: ECO UFR39; type: cell-based, E. coli; settings: for MIC: Escherichia coli
Method in brief: as §1

[3] = test system: PAE UFR48; type: cell-based, P. aeruginosa; settings: PAE UFR48
Method in brief: as §1

[4] = test system: PAE 105250; type: cell-based, P. aeruginosa; settings: PAE 105250
Method in brief: as §1

[5] = test system: PAE UFR90; type: cell-based, P. aeruginosa; settings: PAE UFR90
Method in brief: as §1

[6] = test system: KPN 6299; type: cell-based, K. pneumoniae; settings: for MIC: Klebsiella pneumoniae
Method in brief: as §1

[7] = antibiotic alone, read-out: MIC ATB alone
[8] = Pseudomonas aeruginosa, antibiotic alone, read-out: MIC ATB alone

`CO/N=C(\C(=O)N[C@@H]1C(=O)N2C(C(=O)O)=C(COC(N)=O)CS[C@H]12)c1ccco1` [FUR, Cefuroxime, reference compound] was tested, and the “MIC ATB combined with Example 1 @8 μg/ml” value ([1]; with Example 1 @8 μg/ml) was less than 0.031 µg/mL, the “MIC ATB combined with Example 1 @8 μg/ml” value ([1]; with Example 1 at 8 μg/ml) was less than 0.031 µg/mL and the “MIC ATB combined with Example 7 @8 μgml” value ([1]; with Example 7 at 8 μg/ml) was less than 0.031 µg/mL. For the same compound, the “MIC ATB combined with Example 9 @4 μg/ml” value ([1]; with Example 9 @4 μg/ml) was less than 0.031 µg/mL, the “MIC ATB combined with Example 9 @4 μg/ml” value ([1]; with Example 9 at 4 μg/ml) was less than 0.031 µg/mL and the “MIC ATB combined with Example 11 @8 μg/ml” value ([1]; with Example 11 at 8 μg/ml) was less than 0.031 µg/mL. For the same compound, the “MIC ATB combined with Example 12 @8 μg/ml” value ([1]; with Example 12 at 8 μg/ml) was less than 0.031 µg/mL, the “MIC ATB combined with Example 13 @8 μg/ml” value ([1]; with Example 13 at 8 μg/ml) was less than 0.031 µg/mL and the “MIC ATB combined with Example 14 @8 μg/ml” value ([1]; with Example 14 at 8 μg/ml) was less than 0.031 µg/mL. For the same compound, the “MIC ATB combined with Example 15 @4 μgml” value ([1]; with Example 15 at 4 μg/ml) was less than 0.031 µg/mL, the “MIC ATB combined with Example 16 @4 μg/ml” value ([1]; with Example 16 at 4 μg/ml) was less than 0.031 µg/mL and the MIC [1, 7] was greater than 512 µg/mL. The MIC ([1]; substance alone, read-out: MIC) was greater than 512 µg/mL, the “MIC ATB combined with Example 1 @8 μg/ml” value ([2]; ECO UFR39, with Example 1 @8 μg/ml) was greater than 32 µg/mL and the “MIC ATB combined with Example 1 @8 μg/ml” value ([2]; ECO UFR39, with Example 1 at 8 μg/ml) was greater than 32 µg/mL. The “MIC ATB combined with Example 7 @8 μgml” value ([2]; ECO UFR39, with Example 7 at 8 μg/ml) was less than 0.031 µg/mL, the “MIC ATB combined with Example 9 @4 μg/ml” value ([2]; ECO UFR39, with Example 9 @4 μg/ml) was less than 0.031 µg/mL and the “MIC ATB combined with Example 9 @4 μg/ml” value ([2]; ECO UFR39, with Example 9 at 4 μg/ml) was less than 0.031 µg/mL. The “MIC ATB combined with Example 11 @8 μg/ml” value ([2]; ECO UFR39, with Example 11 at 8 μg/ml) was less than 0.031 µg/mL, the “MIC ATB combined with Example 12 @8 μg/ml” value ([2]; ECO UFR39, with Example 12 at 8 μg/ml) was less than 0.031 µg/mL and the “MIC ATB combined with Example 13 @8 μg/ml” value ([2]; ECO UFR39, with Example 13 at 8 μg/ml) was less than 0.031 µg/mL. The “MIC ATB combined with Example 14 @8 μg/ml” value ([2]; ECO UFR39, with Example 14 at 8 μg/ml) was less than 0.031 µg/mL, the “MIC ATB combined with Example 15 @4 μgml” value ([2]; ECO UFR39, with Example 15 at 4 μg/ml) was less than 0.031 µg/mL and the “MIC ATB combined with Example 16 @4 μg/ml” value ([2]; ECO UFR39, with Example 16 at 4 μg/ml) was less than 0.031 µg/mL. The MIC [2] was greater than 256 µg/mL, the MIC ([2]; ECO UFR39, antibiotic alone, read-out: MIC ATB alone) was greater than 32 µg/mL and the “MIC ATB combined with Example 1 @8 μg/ml” value ([3]; with Example 1 @8 μg/ml) was less than 0.031 µg/mL. For the same compound, the “MIC ATB combined with Example 1 @8 μg/ml” value ([3]; with Example 1 at 8 μg/ml) was less than 0.031 µg/mL, the “MIC ATB combined with Example 7 @8 μgml” value ([3]; with Example 7 at 8 μg/ml) was greater than 32 µg/mL and the “MIC ATB combined with Example 9 @4 μg/ml” value ([3]; with Example 9 @4 μg/ml) was greater than 32 µg/mL. The “MIC ATB combined with Example 9 @4 μg/ml” value ([3]; with Example 9 at 4 μg/ml) was greater than 32 µg/mL, the “MIC ATB combined with Example 11 @8 μg/ml” value ([3]; with Example 11 at 8 μg/ml) was greater than 32 µg/mL and the “MIC ATB combined with Example 12 @8 μg/ml” value ([3]; with Example 12 at 8 μg/ml) was greater than 32 µg/mL. The “MIC ATB combined with Example 13 @8 μg/ml” value ([3]; with Example 13 at 8 μg/ml) was greater than 32 µg/mL, the “MIC ATB combined with Example 14 @8 μg/ml” value ([3]; with Example 14 at 8 μg/ml) was greater than 32 µg/mL and the “MIC ATB combined with Example 15 @4 μgml” value ([3]; with Example 15 at 4 μg/ml) was greater than 32 µg/mL. The “MIC ATB combined with Example 16 @4 μg/ml” value ([3]; with Example 16 at 4 μg/ml) was greater than 32 µg/mL, the MIC [3, 8] was greater than 32 µg/mL and the “MIC ATB combined with Example 1 @8 μg/ml” value ([4]; with Example 1 @8 μg/ml) was less than 0.031 µg/mL. For the same compound, the “MIC ATB combined with Example 1 @8 μg/ml” value ([4]; with Example 1 at 8 μg/ml) was less than 0.031 µg/mL, the “MIC ATB combined with Example 7 @8 μgml” value ([4]; with Example 7 at 8 μg/ml) was greater than 32 µg/mL and the “MIC ATB combined with Example 9 @4 μg/ml” value ([4]; with Example 9 @4 μg/ml) was greater than 32 µg/mL. For the same compound, the “MIC ATB combined with Example 9 @4 μg/ml” value ([4]; with Example 9 at 4 μg/ml) was greater than 32 µg/mL, the “MIC ATB combined with Example 11 @8 μg/ml” value ([4]; with Example 11 at 8 μg/ml) was greater than 32 µg/mL and the “MIC ATB combined with Example 12 @8 μg/ml” value ([4]; with Example 12 at 8 μg/ml) was greater than 32 µg/mL. The “MIC ATB combined with Example 13 @8 μg/ml” value ([4]; with Example 13 at 8 μg/ml) was greater than 32 µg/mL, the “MIC ATB combined with Example 14 @8 μg/ml” value ([4]; with Example 14 at 8 μg/ml) was greater than 32 µg/mL and the “MIC ATB combined with Example 15 @4 μgml” value ([4]; with Example 15 at 4 μg/ml) was greater than 32 µg/mL. For the same compound, the “MIC ATB combined with Example 16 @4 μg/ml” value ([4]; with Example 16 at 4 μg/ml) was greater than 32 µg/mL, the MIC [4, 8] was greater than 512 µg/mL and the “MIC ATB combined with Example 1 @8 μg/ml” value ([5]; with Example 1 @8 μg/ml) was less than 0.031 µg/mL. For the same compound, the “MIC ATB combined with Example 1 @8 μg/ml” value ([5]; with Example 1 at 8 μg/ml) was less than 0.031 µg/mL, the “MIC ATB combined with Example 7 @8 μgml” value ([5]; with Example 7 at 8 μg/ml) was greater than 32 µg/mL and the “MIC ATB combined with Example 9 @4 μg/ml” value ([5]; with Example 9 @4 μg/ml) was greater than 32 µg/mL. The “MIC ATB combined with Example 9 @4 μg/ml” value ([5]; with Example 9 at 4 μg/ml) was greater than 32 µg/mL, the “MIC ATB combined with Example 11 @8 μg/ml” value ([5]; with Example 11 at 8 μg/ml) was greater than 32 µg/mL and the “MIC ATB combined with Example 12 @8 μg/ml” value ([5]; with Example 12 at 8 μg/ml) was greater than 32 µg/mL. For the same compound, the “MIC ATB combined with Example 13 @8 μg/ml” value ([5]; with Example 13 at 8 μg/ml) was greater than 32 µg/mL, the “MIC ATB combined with Example 14 @8 μg/ml” value ([5]; with Example 14 at 8 μg/ml) was greater than 32 µg/mL and the “MIC ATB combined with Example 15 @4 μgml” value ([5]; with Example 15 at 4 μg/ml) was greater than 32 µg/mL. For the same compound, the “MIC ATB combined with Example 16 @4 μg/ml” value ([5]; with Example 16 at 4 μg/ml) was greater than 32 µg/mL, the MIC [5, 8] was greater than 32 µg/mL and the MIC [6, 7] was greater than 512 µg/mL. The MIC ([6]; substance alone, read-out: MIC) was greater than 512 µg/mL, the “MIC ATB combined with Example 1 @8 μg/ml” value ([6]; with Example 1 @8 μg/ml) was 8 µg/mL and the “MIC ATB combined with Example 1 @8 μg/ml” value ([6]; with Example 1 at 8 μg/ml) was 8 µg/mL. For the same compound, the “MIC ATB combined with Example 7 @8 μgml” value ([6]; with Example 7 at 8 μg/ml) was 2 µg/mL, the “MIC ATB combined with Example 9 @4 μg/ml” value ([6]; with Example 9 @4 μg/ml) was less than 0.031 µg/mL and the “MIC ATB combined with Example 9 @4 μg/ml” value ([6]; with Example 9 at 4 μg/ml) was less than 0.031 µg/mL.
